Tested on: antinociceptive activity of oxotremorine
Assay: Antagonism of antinociceptive activity of oxotremorine, hot plate (Table III)
Assay type: in vivo, mice
Method: The antinociceptive activity of oxotremorine [Leslie, J. Pharm. Pharmae., Vol. 2 (1969), p. 248-50] was determined on mice using the hot plate method of Eddy et al [J. Pharmacol. Vol. 107 (1953), p. 385] in the presence and absence of the test product presumed to be antagonistic. The product of Example 1 was administered subcutaneously in aqueous solution at doses of 50 and 100 mg/kg to groups of 10 mice and the products of Examples 2 to 5 were subcutaneously administered in sesame oil solution at doses of 200 and 400 mg/kg to groups of 10 mice. The mice then received a single intraperitoneal injection of 0.5 mg/kg of oxotremorine either 4 hours, 1 day, 2, 3, 4 or 7 days after the test product administration. For each time considerated, the mice were placed on the hot plate one half hour after the oxotremorine administration and the time for the appearance of nociceptive refluxes consistituted by simultaneous licking of the front paws was noted. The maximum time of staying on the hot plate was fixed at 45 seconds and the percentage of animals with a reaction time (RT) less than 40 seconds in spite of oxotremorine administration was determined.

[1] = 200 mg/kg s.c. sesame oil, after 4 h
[2] = 200 mg/kg s.c. sesame oil, after 1 d
[3] = 200 mg/kg s.c. sesame oil, after 2 d
[4] = 200 mg/kg s.c. sesame oil, after 3 d
[5] = 200 mg/kg s.c. sesame oil, after 4 d
[6] = 200 mg/kg s.c. sesame oil, after 7 d
[7] = 400 mg/kg s.c. sesame oil, after 4 h
[8] = 400 mg/kg s.c. sesame oil, after 1 d
[9] = 400 mg/kg s.c. sesame oil, after 2 d
[10] = 400 mg/kg s.c. sesame oil, after 3 d
[11] = 400 mg/kg s.c. sesame oil, after 4 d
[12] = 400 mg/kg s.c. sesame oil, after 7 d

Structure (SMILES) | % of animals with a RT less than 40 seconds [1] | % of animals with a RT less than 40 seconds [2] | % of animals with a RT less than 40 seconds [3] | % of animals with a RT less than 40 seconds [4] | % of animals with a RT less than 40 seconds [5] | % of animals with a RT less than 40 seconds [6] | % of animals with a RT less than 40 seconds [7] | % of animals with a RT less than 40 seconds [8] | % of animals with a RT less than 40 seconds [9] | % of animals with a RT less than 40 seconds [10] | % of animals with a RT less than 40 seconds [11] | % of animals with a RT less than 40 seconds [12] | % of animals with a RT less than 40 seconds (oxotremorine controls, 0.5 mg/kg i.p., 4 h) | % of animals with a RT less than 40 seconds (oxotremorine controls, 0.5 mg/kg i.p., 1 d) | % of animals with a RT less than 40 seconds (oxotremorine controls, 0.5 mg/kg i.p., 2 d) | % of animals with a RT less than 40 seconds (oxotremorine controls, 0.5 mg/kg i.p., 3 d) | % of animals with a RT less than 40 seconds (oxotremorine controls, 0.5 mg/kg i.p., 4 d) | % of animals with a RT less than 40 seconds (oxotremorine controls, 0.5 mg/kg i.p., 7 d)
CCCCCCCCCC(=O)OCCN1C2CCC1CC(=C1c3ccccc3CSc3ccccc31)C2 (racemic) [Example 4, dl N-(β-decanoyloxyethyl)-11-(3'-nortropylidene)-6,11-dihydrodibenzo(b,e)thiepine] | 100% | 30% | 30% | 10% | 0% | 20% | 100% | 60% | 30% | 30% | 0% | 30% |  |  |  |  |  | 
CCCCCCCCCCCCCCCC(=O)OCCN1C2CCC1CC(=C1c3ccccc3CSc3ccccc31)C2 (racemic) [Example 5, dl N-(β-palmitoyloxyethyl)-11-(3'-nortropylidene)-6,11-dihydrodibenzo(b,e)thiepine] | 20% | 30% | 40% | 10% | 30% | 30% | 70% | 60% | 30% | 20% | 20% | 30% |  |  |  |  |  | 
O=C1CCCN1CC#CCN1CCCC1 [Oxotremorine, oxotremorine, reference compound] |  |  |  |  |  |  |  |  |  |  |  |  | 10% | 10% | 10% | 10% | 0% | 0%

From patent US3975529A, “Diebenzo(B,E)thiepines” (Roussel-UCLAF, priority 1974, dated 1976)
